Test results taken from patent US8664269B2, “Nitroglycerin therapy for those unable to metabolize nitroglycerin” (Duke University, priority 2005, dated 2014).

Experiments:
[1] = test system: alcoholic with restenosis and chest pain; assay: Example VI: restenosis and chest pain in an alcoholic; format: in vivo, human
Excerpt: A alcoholic has restenosis and chest pain.

[2] = test system: alcoholic patient who develops angina; assay: Example IV: GTN therapy of angina in an alcoholic; format: in vivo, human; conditions: for resolution of angina: 600 mg P.O. (TID) with sublingual GTN (0.4 mg)
Excerpt: A alcoholic needs to imbibe alcohol to avoid withdrawal symptoms. The patient develops angina. Sublingual GTN ([…]) has no effect.

[3] = test system: patient with persistent angina; assay: Example I: GTN therapy of persistent angina, patient; format: in vivo, human
Protocol: A patient has persistent angina. Treatment by infusion with GTN 100 mcg/min has no effect. Infusion of nitroglycerin 100 mcg/min is continued along with infusion of N-acetylcysteine at 50 mg/kg every six hours.

[4] = test system: patient with congestive heart failure; assay: Example II: GTN therapy of congestive heart failure, patient; format: in vivo, human
Protocol: A patient has congestive heart failure manifested by pulmonary congestion and low ventricular function. Treatment by infusion with GTN (100 mcg/min) has no effect. Infusion of GTN (100 mcg/min) is continued along with infusion of N-acetylcysteine at 50 mg/kg every 6 hours. After 10 minutes time, pulmonary congestion attenuates and ventricular function improves.

[5] = test system: Patient with interstitial lung disease (pulmonary fibrosis); assay: Example X: interstitial lung disease (pulmonary fibrosis), patient; format: in vivo, human; conditions: nebulized GTN (10 micromolar) together with nebulized NAC (1 millimolar); patient on prednisone therapy
Excerpt: A patient with interstitial lung disease (pulmonary fibrosis) experiences shortness of breath despite being on prednisone therapy.

[6] = test system: patients receiving continuous GTN; conditions: intravenous NAC, short term studies; cited from earlier work
[7] = test system: alcoholic with chronic obstructive pulmonary disease; assay: Example VIII: obstructive lung disease in an alcoholic, shortness of breath; format: in vivo, human
Excerpt: A alcoholic with obstructive lung disease (chronic obstructive pulmonary disease) has shortness of breath.

[8] = test system: patient with Type 1 diabetes on insulin regimen who develops angina; assay: Example III: GTN therapy of angina, Type 1 diabetes patient on insulin regimen; format: in vivo, human
Patient with asthma = assay: Example IX: asthma, patient, shortness of breath; format: in vivo, human; conditions: nebulized combination of GTN (100 micromolar) and NAC (dose of I millimolar)
Excerpt: A patient with asthma experiences shortness of breath.

[9] = test system: patient with heart attack (myocardial infarction); assay: Example V: myocardial infarction, patient; format: in vivo, human; conditions: IV GTN alone
Excerpt: A patient has a heart attack (myocardial infarction).

[10] = test system: person with high blood pressure; assay: Example VII: high blood pressure; format: in vivo, human; conditions: 50 mg/min IV GTN alone; 200 mmHg systolic
Protocol: A person has high blood pressure (200 mmHg systolic). […] Administration of Composition V (50 mg/ml and NAC 75 mg/ml) at 1 ml/min causes blood pressure to fall to 160 mmHg.

[11] = infusion of N-acetylcysteine 50 mg/kg every six hours along with infusion of nitroglycerin 100 mcg/min
[12] = infusion of N-acetylcysteine 50 mg/kg every 6 hours along with infusion of GTN 100 mcg/min
[13] = infusion of GTN 100 mcg/min alone

N[C@@H](CCC(=O)N[C@@H](CS)C(=O)NCC(=O)O)C(=O)O [glutathione]
chest pain ([1]; glutathione 60 mg P.O. (T.I.D.) supplementing sublingual GTN 0.5 mg): chest pain is relieved
resolution of angina [2]: resolution of the angina

CC(=O)N[C@@H](CS)C(=O)O [N-acetylcysteine]
resolution of angina [3, 11]: the angina is resolved
time until angina is resolved [3, 11]: 3 min
pulmonary congestion [4, 12]: attenuates
time until pulmonary congestion attenuates and ventricular function improves [4, 12]: 10 min
ventricular function [4, 12]: improves
shortness of breath [5]: causes improvement
GTN tolerance [6]: reverse GTN tolerance
shortness of breath ([7]; nebulized combination of GTN (100 micromolar) and NAC (1 millimolar)): causes improvement
chest pain ([1]; oral NAC (300 mg) supplementing sublingual GTN 0.5 mg): chest pain is relieved
resolution of angina [2]: resolution of the angina
resolution of angina ([8]; N-acetylcysteine 600 mg P.O. TID along with sublingual GTN (0.4 mg)): causes the angina to resolve
shortness of breath (Patient with asthma): causes improvement

O=[N+]([O-])OCC(CO[N+](=O)[O-])O[N+](=O)[O-] [GTN, nitroglycerin]
effect on persistent angina [3, 13]: no effect
effect on congestive heart failure (pulmonary congestion, low ventricular function) [4, 13]: no effect
response of myocardial infarction patient [9]: does not respond
shortness of breath ([7]; nebulized GTN at a dose of 100 micromolar alone): does not cause improvement
response of high blood pressure [10]: does not respond
chest pain ([1]; sublingual GTN 0.5 mg alone): does not relieve chest pain
effect on angina ([2]; sublingual GTN (0.4 mcg) alone): no effect
effect on angina ([8]; sublingual GTN (0.4 mcg) alone): no effect

O=C1O[C@H]([C@@H](O)CO)C(O)=C1O [Vitamin C, ascorbic acid]
chest pain ([1]; oral vitamin C (10,000 mg/day P.O.) supplementing sublingual GTN 0.5 mg): chest pain is relieved
resolution of angina ([8]; Vitamin C 10,000 mg/day P.O. along with sublingual GTN (0.4 mg)): causes the angina to resolve
